Experimental data taken from article PMC6264766, “Fluorescence Resonance Energy Transfer Assay for High-Throughput Screening of ADAMTS1 Inhibitors” (Molecules, 2011).

What was measured:
[1] = target: T1, recombinant ADAMTS1 (p65-ADAMTS1) expressed in E. coli (Homo sapiens, UniProt Q9UHI8); experiment: FRET peptide cleavage assay (Abz/Dnp), dose-response; assay type: biochemical
T1 construct: 1452 nt cDNA fragment (nt 1206-2657, 484 codons; propeptide and C-terminal part absent; primer starts at KRFVSS, ends ISGSVTSA); pET32a Trx fusion, Trx removed by enterokinase, C-terminal His tag; E. coli BL21(DE3); heparin-sepharose purified; fusion about 70 kDa
T1 sequence (Q9UHI8 251-734): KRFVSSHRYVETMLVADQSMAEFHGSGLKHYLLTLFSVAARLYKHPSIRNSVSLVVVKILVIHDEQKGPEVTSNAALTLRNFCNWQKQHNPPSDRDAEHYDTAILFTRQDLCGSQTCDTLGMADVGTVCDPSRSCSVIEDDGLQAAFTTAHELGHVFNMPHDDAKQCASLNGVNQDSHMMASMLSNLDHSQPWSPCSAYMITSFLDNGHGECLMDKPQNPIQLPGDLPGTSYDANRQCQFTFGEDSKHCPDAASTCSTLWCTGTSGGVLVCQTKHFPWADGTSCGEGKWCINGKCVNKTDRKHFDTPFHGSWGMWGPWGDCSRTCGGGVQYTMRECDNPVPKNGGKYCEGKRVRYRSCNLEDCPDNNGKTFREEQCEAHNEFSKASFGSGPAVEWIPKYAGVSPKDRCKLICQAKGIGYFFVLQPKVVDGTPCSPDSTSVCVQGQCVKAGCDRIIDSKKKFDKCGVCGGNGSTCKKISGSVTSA
Source text: FRET peptide cleavage assay (Abz/Dnp), dose-response on recombinant ADAMTS1 (p65-ADAMTS1) expressed in E. coli

[2] = target: T2, human recombinant ADAMTS1 expressed in the murine myeloma cell line (R&D Systems) (Homo sapiens, UniProt Q9UHI8); experiment: as above; assay type: biochemical
T2 construct: commercial recombinant protein from R&D Systems, murine myeloma cell line
T2 sequence (Q9UHI8 253-967): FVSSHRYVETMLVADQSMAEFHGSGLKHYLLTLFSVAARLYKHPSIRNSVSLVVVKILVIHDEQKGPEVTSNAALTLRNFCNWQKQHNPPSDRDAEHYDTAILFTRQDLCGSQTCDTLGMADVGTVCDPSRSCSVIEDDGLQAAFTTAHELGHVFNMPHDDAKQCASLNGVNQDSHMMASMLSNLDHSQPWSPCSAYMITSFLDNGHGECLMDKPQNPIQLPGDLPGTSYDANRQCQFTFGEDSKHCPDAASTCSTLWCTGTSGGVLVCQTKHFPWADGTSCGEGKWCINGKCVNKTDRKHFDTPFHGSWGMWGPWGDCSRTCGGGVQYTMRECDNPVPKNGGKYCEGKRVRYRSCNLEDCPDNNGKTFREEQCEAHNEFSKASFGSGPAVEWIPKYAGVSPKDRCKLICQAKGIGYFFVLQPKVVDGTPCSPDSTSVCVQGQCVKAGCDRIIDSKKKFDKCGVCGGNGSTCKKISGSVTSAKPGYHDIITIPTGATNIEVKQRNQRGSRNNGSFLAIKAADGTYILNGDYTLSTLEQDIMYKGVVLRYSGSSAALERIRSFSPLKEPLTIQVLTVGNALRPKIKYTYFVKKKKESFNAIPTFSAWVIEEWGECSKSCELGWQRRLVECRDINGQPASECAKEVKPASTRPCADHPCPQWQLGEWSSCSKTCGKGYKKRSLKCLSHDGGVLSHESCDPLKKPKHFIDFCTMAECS
Source text: FRET peptide cleavage assay (Abz/Dnp), dose-response on human recombinant ADAMTS1 expressed in the murine myeloma cell line (R&D Systems)

Row | IC50 [1] | IC50 [2] | Structure (SMILES)
1 | 11.9 ± 0.7 µM | 10.7 ± 0.6 µM | CC1=C[C@H](c2cc3cc(-c4cc(O)cc(O)c4)oc3cc2O)[C@@H](C(=O)c2ccc(O)cc2O)[C@H](c2ccc(O)cc2O)C1 [J14715, albafuran C]
2 | 7.6 ± 0.6 µM | 5.5 ± 0.4 µM | CC1=C[C@H](c2cc(/C=C/c3cc(O)cc(O)c3)c(O)cc2O)[C@@H](C(=O)c2ccc(O)cc2O)[C@H](c2ccc(O)cc2O)C1 [J14713, kuwanon P]
